Reference: patent US10688131B2, “Peptides and scaffolds for use in immunotherapy against head and neck squamous cell carcinoma and other cancers” (Immatics Biotechnologies GmbH, priority 2016, dated 2020)

Key:
CD8+ T cells = assay: In vitro T-cell priming assay with aAPCs loaded with peptide/MHC complexes and anti-CD28 antibody, pMHC multimer readout; format: cell-based, human; conditions: for Donors: percentage of positive donors; for Donors / Wells: HLA-A*02 healthy donors, three stimulation cycles; for Wells: percentage of positive wells; for Wells positive [%]: percentage of positive wells among evaluable, HLA-A*02 restricted peptides
From the text: In order to obtain information regarding the immunogenicity of the TUMAPs of the present invention, the inventors performed investigations using an in vitro T-cell priming assay based on repeated stimulations of CD8+ T cells with artificial antigen presenting cells (aAPCs) loaded with peptide/MHC complexes and anti-CD28 antibody.
In order to perform in vitro stimulations by artificial antigen presenting cells loaded with peptide-MHC complex (pMHC) and anti-CD28 antibody, the inventors first isolated CD8+ T cells from fresh HLA-A*02 leukapheresis products via positive selection using CD8 microbeads (Miltenyi Biotech, Bergisch-Gladbach, Germany) of healthy donors obtained from the University clinics Mannheim, Germany, after informed consent.
PBMCs and isolated CD8+ lymphocytes were incubated in T-cell medium (TCM) until use consisting of RPMI-Glutamax (Invitrogen, Karlsruhe, Germany) supplemented with 10% heat inactivated human AB serum (PAN-Biotech, Aidenbach, Germany), 100 U/ml Penicillin/100 μg/ml Streptomycin (Cambrex, Cologne, Germany), 1 mM sodium pyruvate (CC Pro, Oberdorla, Germany), 20 μg/ml Gentamycin (Cambrex). 2.5 ng/ml IL-7 (PromoCell, Heidelberg, Germany) and 10 U/ml IL-2 (Novartis Pharma, Nürnberg, Germany) were also added to the TCM at this step.
Generation of pMHC/anti-CD28 coated beads, T-cell stimulations and readout was performed in a highly defined in vitro system using four different pMHC molecules per stimulation condition and 8 different pMHC molecules per readout condition.
The purified co-stimulatory mouse IgG2a anti human CD28 Ab 9.3 (Jung et al., 1987) was chemically biotinylated using Sulfo-N-hydroxysuccinimidobiotin as recommended by the manufacturer (Perbio, Bonn, Germany). Beads used were 5.6 μm diameter streptavidin coated polystyrene particles (Bangs Laboratories, Illinois, USA).
pMHC used for positive and negative control stimulations were A*0201/MLA-001 (peptide […] (SEQ ID NO. 157) from modified Melan-A/MART-1) and A*0201/DDX5-001 ([…] from DDX5, SEQ ID NO. 158), respectively.
800.000 beads/200 μl were coated in 96-well plates in the presence of 4×12.5 ng different biotin-pMHC, washed and 600 ng biotin anti-CD28 were added subsequently in a volume of 200 μl. Stimulations were initiated in 96-well plates by co-incubating 1×10^6 CD8+ T cells with 2×10^5 washed coated beads in 200 μl TCM supplemented with 5 ng/ml IL-12 (PromoCell) for 3 days at 37° C. Half of the medium was then exchanged by fresh TCM supplemented with 80 U/ml IL-2 and incubating was continued for 4 days at 37° C. This stimulation cycle was performed for a total of three times. For the pMHC multimer readout using 8 different pMHC molecules per condition, a two-dimensional combinatorial coding approach was used as previously described (Andersen et al., 2012) with minor modifications encompassing coupling to 5 different fluorochromes. Finally, multimeric analyses were performed by staining the cells with Live/dead near IR dye (Invitrogen, Karlsruhe, Germany), CD8-FITC antibody clone SK1 (BD, Heidelberg, Germany) and fluorescent pMHC multimers. For analysis, a BD LSRII SORP cytometer equipped with appropriate lasers and filters was used. Peptide specific cells were calculated as percentage of total CD8+ cells. Evaluation of multimeric analysis was done using the FlowJo software (Tree Star, Oregon, USA). In vitro priming of specific multimer+CD8+ lymphocytes was detected by comparing to negative control stimulations.
Exemplary flow cytometry results after TUMAP-specific multimer staining for 2 peptides of the invention are shown in FIGS. 3A and 3B together with corresponding negative controls. Additional exemplary flow cytometry results after TUMAP-specific multimer staining for 3 peptides of the invention are shown in FIGS. 4A-4C together with corresponding negative controls.

HLA-A*02:01 = HLA-A*02:01 (Homo sapiens, UniProt P04439, D140Y/D185E/D98H/E176V/E277Q/G131W/G231S/I119V/I121R/I166T/I218V/L300P/L318F/N151K/N90K/P208A/P217A/Q86G/Q94H/R138H/R169H/T345S); assay: MHC binding assay: UV-ligand exchange with β2m ELISA; conditions: binding of HLA-class I restricted peptides to HLA-A*02:01
From the text: Candidate peptides for T cell based therapies according to the present invention were further tested for their MHC binding capacity (affinity). The individual peptide-MHC complexes were produced by UV-ligand exchange, where a UV-sensitive peptide is cleaved upon UV-irradiation, and exchanged with the peptide of interest as analyzed. Only peptide candidates that can effectively bind and stabilize the peptide-receptive MHC molecules prevent dissociation of the MHC complexes. To determine the yield of the exchange reaction, an ELISA was performed based on the detection of the light chain (β2m) of stabilized MHC complexes. The assay was performed as generally described in Rodenko et al. (Rodenko et al., 2006).
96 well MAXISorp plates (NUNC) were coated over night with 2 ug/ml streptavidin in PBS at room temperature, washed 4× and blocked for 1 h at 37° C. in 2% BSA containing blocking buffer. Refolded HLA-A*02:01/MLA-001 monomers served as standards, covering the range of 15-500 ng/ml. Peptide-MHC monomers of the UV-exchange reaction were diluted 100-fold in blocking buffer. Samples were incubated for 1 h at 37° C., washed four times, incubated with 2 ug/ml HRP conjugated anti-β2m for 1 h at 37° C., washed again and detected with TMB solution that is stopped with […]. Absorption was measured at 450 nm. Candidate peptides that show a high exchange yield (preferably higher than 50%, most preferred higher than 75%) are generally preferred for a generation and production of antibodies or fragments thereof, and/or T cell receptors or fragments thereof, as they show sufficient avidity to the MHC molecules and prevent dissociation of the MHC complexes.

Substance	Peptide exchange (MHC class I binding score, peptide exchange yield) (HLA-A*02:01)	Donors (CD8+ T cells)	Wells (CD8+ T cells)	Wells positive [%] (CD8+ T cells)
118 (TLLQEQGTKTV; listed as Homo sapiens) [compound 118]		++ (20%-49% = ++)	+ (<20% = +)	
3 (SLYGLGGSKRISI; listed as Homo sapiens) [compound 3]	+++ (>50 = +++)			+ (<20% = +)
137 (GLAPFLLNAV; listed as Homo sapiens) [compound 137]		++++ (>=70% = ++++)	+ (<20% = +)	
1 (GLAGGFGGPGFPV; listed as Homo sapiens) [compound 1]	++++ (>75% = ++++)			+ (<20% = +)
101 (GLLPSAESIKL; listed as Homo sapiens) [compound 101]		++++ (>=70% = ++++)	+ (<20% = +)	
135 (GLFSQHFNL; listed as Homo sapiens) [compound 135]		++ (20%-49% = ++)	+ (<20% = +)	
10 (TLWPATPPKA; listed as Homo sapiens) [compound 10]	+++ (>50 = +++)			+ (<20% = +)
123 (LLSGDLIFL; listed as Homo sapiens) [compound 123]		++++ (>=70% = ++++)	++ (20%-49% = ++)	
145 (LLYGKYVSV; listed as Homo sapiens) [compound 145]		++++ (>=70% = ++++)	++ (20%-49% = ++)	
113 (NLMASQPQL; listed as Homo sapiens) [compound 113]		++++ (>=70% = ++++)	+++ (50%-69% = +++)	
147 (ILMDPSPEYA; listed as Homo sapiens) [compound 147]		++++ (>=70% = ++++)	+++ (50%-69% = +++)	
98 (SLYKGLLSV; listed as Homo sapiens) [compound 98]		++++ (>=70% = ++++)	++ (20%-49% = ++)	
127 (SLFGKKYIL; listed as Homo sapiens) [compound 127]		++++ (>=70% = ++++)	++ (20%-49% = ++)	
114 (VLVPYEPPQV; listed as Homo sapiens) [compound 114]		++++ (>=70% = ++++)	+ (<20% = +)	
105 (STYGGGLSV; listed as Homo sapiens) [compound 105]		++++ (>=70% = ++++)	+ (<20% = +)	
108 (SLYNLGGSKRISI; listed as Homo sapiens) [compound 108]		++++ (>=70% = ++++)	+ (<20% = +)	
109 (KIQEILTQV; listed as Homo sapiens) [compound 109]		+++ (50%-69% = +++)	+ (<20% = +)	
143 (YVYQNNIYL; listed as Homo sapiens) [compound 143]		++ (20%-49% = ++)	+ (<20% = +)	
154 (KMWEELPEVV; listed as Homo sapiens) [compound 154]		++++ (>=70% = ++++)	+ (<20% = +)	
9 (STASAITPSV; listed as Homo sapiens) [compound 9]	++ (>20% = ++)			
150 (ILAEEPIYIRV; listed as Homo sapiens) [compound 150]		++++ (>=70% = ++++)	+++ (50%-69% = +++)	

The next lines start with results.

Peptide exchange (MHC class I binding score, peptide exchange yield) (HLA-A*02:01)	Substance	Donors (CD8+ T cells)	Wells (CD8+ T cells)	Wells positive [%] (CD8+ T cells)
++++ (>75% = ++++)	20 (YLINEIDRIRA; listed as Homo sapiens) [compound 20]			+ (<20% = +)
++++ (>75% = ++++)	13 (SLVSYLDKV; listed as Homo sapiens) [compound 13]			++ (20%-49% = ++)
++++ (>75% = ++++)	12 (TLTDEINFL; listed as Homo sapiens) [compound 12]			+ (<20% = +)
++++ (>75% = ++++)	11 (VLFSSPPVI; listed as Homo sapiens) [compound 11]			++ (20%-49% = ++)
++++ (>75% = ++++)	19 (ALAKLLPLL; listed as Homo sapiens) [compound 19]			++ (20%-49% = ++)
++++ (>75% = ++++)	29 (RLLPDLDEV; listed as Homo sapiens) [compound 29]			++ (20%-49% = ++)
++++ (>75% = ++++)	21 (FLHEPFSSV; listed as Homo sapiens) [compound 21]			
++++ (>75% = ++++)	14 (RIMEGIPTV; listed as Homo sapiens) [compound 14]			
+++ (>50 = +++)	85 (QLIEKITQV; listed as Homo sapiens) [compound 85]			
++++ (>75% = ++++)	31 (HLATVKLLV; listed as Homo sapiens) [compound 31]			
++++ (>75% = ++++)	56 (FLQLETEQV; listed as Homo sapiens) [compound 56]			
+++ (>50 = +++)	74 (SLTSFLISL; listed as Homo sapiens) [compound 74]			
+++ (>50 = +++)	86 (SLQERQVFL; listed as Homo sapiens) [compound 86]			
+++ (>50 = +++)	39 (LLPEDDTRDNV; listed as Homo sapiens) [compound 39]			
++++ (>75% = ++++)	43 (AVLGGKLYV; listed as Homo sapiens) [compound 43]			
+++ (>50 = +++)	59 (YLQNEVFGL; listed as Homo sapiens) [compound 59]			
++++ (>75% = ++++)	46 (GLISSIEAQL; listed as Homo sapiens) [compound 46]			
